This is an account of results in US20200055839A1 (priority 2017, published 2020).

The assay deals with NL-RLuc virus. Kind of assay: Inhibition of HIV replication (NL-RLuc virus, luciferase readout in MT-2 cells). Format: cell-based. The following applies: Human immunodeficiency virus 1, MT2, 120 h, MT-2 cells infected with NL-RLuc virus, 5 days of incubation, 10% FBS, at least 2 experiments. Summed up:
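EC50 derived via median effect equation from at least 2 experiments, using luciferase expression as virus-growth readout. Replication-competent NL-RLuc reporter virus (nef partly replaced by Renilla luciferase) infected MT-2 cells with serial compound dilutions; 5-day incubation in RPMI 1640 plus 10% FBS.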

As usually defined, the EC50 is the concentration that produces a half-maximal response.

For `Cc1ncc(-c2ccc(NCC(C)C)nc2)c(N2CCC(C)(C)CC2)c1[C@H](OC(C)(C)C)C(=O)O` [Example 436, (S)-2-tert-Butoxy-2-(4-(4,4-dimethylpiperidin-1-yl)-6′-(isobutylamino)-6-methyl-3, 3′-bipyridin-5-yl)acetic acid], the EC50 is 7 nM.

For `Cc1ncccc1Nc1nc(C)c([C@H](OC(C)(C)C)C(=O)O)c(N2CCC(C)(C)CC2)c1-c1ccc(OCCc2ccc(F)cc2)cc1` [Example 94, (S)-2-(tert-Butoxy)-2-(4-(4,4-dimethylpiperidin-1-yl)-5-(4-(4-fluorophenethoxy)phenyl)-2-methyl-6-((2-methylpyridin-3-yl)amino)pyridin-3-yl)acetic acid], the EC50 was 6 nM. The figure for `Cc1ncc(-c2ccc(O[C@H](C)C(C)C)cc2)c(N2CCC(C)(C)CC2)c1[C@H](OC(C)(C)C)C(=O)O` [Example 362, (2S)-2-(tert-butoxy)-2-[4-(4,4-dimethylpiperidin-1-yl)-2-methyl-5-(4-{[(2R)-3-methylbutan-2-yl]oxy}phenyl)pyridin-3-yl]acetic acid] is 8 nM; for `COc1c(F)cc(-c2c(CN3CCCCCCC3)nc(C)c([C@H](OC(C)(C)C)C(=O)O)c2N2CCC(C)(C)CC2)cc1F` [Example 199, (2S)-2-{6-[(Azocan-1-yl)methyl]-5-(3,5-difluoro-4-methoxyphenyl)-4-(4,4-dimethylpiperidin-1-yl)-2-methylpyridin-3-yl}-2-(tert-butoxy)acetic acid] it is 4 nM; for `Cc1ccc(F)cc1CCOc1ncc(-c2cnc(C)c([C@H](OC(C)(C)C)C(=O)O)c2N2CCC(C)(C)CC2)cc1F` [Example 401, (2S)-2-(tert-butoxy)-2-[4-(4,4-dimethylpiperidin-1-yl)-5′-fluoro-6′-[2-(5-fluoro-2-methylphenyl)ethoxy]-6-methyl-[3,3′-bipyridine]-5-yl]acetic acid] it is 2 nM. The figure for `Cc1nc(N)c(-c2cnc(OCCc3ccc(F)cc3)c(F)c2)c(N2CCC(C)(C)CC2)c1[C@H](OC(C)(C)C)C(=O)O` [Example 115, (S)-2-(2-Amino-4-(4,4-dimethylpiperidin-1-yl)-5′-fluoro-6′-(4-fluorophenethoxy)-6-methyl-[3, 3′-bipyridin]-5-yl)-2-(tert-butoxy)acetic acid] is 1 nM.

With `Cc1ncc(-c2ccc(N(C)C)nc2)c(N2CCC(C)(C)CC2)c1[C@H](OC(C)(C)C)C(=O)O` [Example 111, (S)-2-(tert-Butoxy)-2-(6′-(dimethylamino)-4-(4,4-dimethylpiperidin-1-yl)-6-methyl-[3, 3′-bipyridin]-5-yl)acetic acid], the EC50 is 2 nM.
